Measurements from article PMC8222276 (Communications Biology, 2021).

Key:
[1] = biological target: T1, AM1 receptor (CLR-RAMP2) in HUAECs (Homo sapiens, UniProt O60895+Q16602); experiment: ERK1/2 phosphorylation in HUAECs; type: cell-based
T1 construct: host or cells: primary HUAECs
Description: Primary cells were grown in 6 well plates, on the day of the experiment media was replaced with serum free media 4 h prior to cell harvesting. Tyrpsin-EDTA was used to dissociate the cells and they were collected by centrifugation, counted and re-suspended HBSS/BSA (0.1%). Ligands were also diluted in HBSS/BSA. Cells were then plated on 384 well plates in 8 μl aliquots at a density of 20,000 cells/well. Next, ligands were added (4 μl) for 5 min stimulation at room temperature. Cells were then lysed as per to the manufacturer’s instructions with 4 μl of lysis buffer (Cisbio phosphor-ERK1/2 cellular assay kit, Invitrogen, UK) for 30 min shaking at room temperature. The 2 specific antibodies; were pre-mixed in a 1:1 ratio. 4 μl of this was added to each well and the plate incubated for a further 2 h.
All sample sizes were determined, and data analysed, in accordance with the guidelines described by Curtis M et al.[65]. All experiments were appropriately controlled using ‘system pathway’ agonists. If any of these pathway controls generated inappropriate responses, then the entire data set was removed from analysis. […] Data analysis for cAMP accumulation, Ca^2+i mobilisation, NO accumulation, pERK1/2 activation, and cell proliferation assays were performed in GraphPad Prism 8.4 (GraphPad Software, San Diego). Data were fitted to obtain concentration–response curves using either the three-parameter logistic equation using to obtain values of Emax and pEC50 or the operational model of agonism. Statistical differences were analysed using one-way ANOVA followed by Dunnett’s post-hoc (for comparisons amongst more than two groups) or unpaired Student’s t test with Welch’s correction (for comparison between two groups). To account for the day-to-day variation experienced from the cultured cells, we used the maximal level of cAMP accumulation from cells in response to 100 μM forskolin stimulation was used as a reference, 10 μM ionomycin for Ca^2+i assays, 10 μM phorbol 12-myristate 13-acetate (PMA) for pERK1/2 activation, 10 μM acetylcholine for NO production and 10 μM VEGF for cell proliferation. […] Where appropriate the operational model for receptor agonism[27] was used to obtain efficacy (τ) and equilibrium disassociation constant (KA) values. In both cases, this normalisation removes the variation due to differences in days but retains the variance for control values. The means of individual experiments were combined to generate the curves shown. Having obtained values for τ and KA these were then used to quantify signalling bias as the change in Log(τ/KA)[19],[28]. Error for this composite measure was propagated by applying Eq. 1.1 PooledSEM=(SEMA)^2+(SEMB)^2 Where, SEMA and SEMB are the standard error of measurement A and B. […]

[2] = biological target: T2, AM1 receptor (CLR-RAMP2) in HUVECs (Homo sapiens, UniProt O60895+Q16602); experiment: signalling bias analysis (operational model) in HUVECs; conditions: HUVEC; ΔΔLog(τ/KA), reference AM and cAMP
T2 construct: HUVECs specifically express the AM1 receptor alone; host or cells: primary HUVECs
Description: All sample sizes were determined, and data analysed, in accordance with the guidelines described by Curtis M et al.[65]. All experiments were appropriately controlled using ‘system pathway’ agonists. If any of these pathway controls generated inappropriate responses, then the entire data set was removed from analysis. […] Data analysis for cAMP accumulation, Ca^2+i mobilisation, NO accumulation, pERK1/2 activation, and cell proliferation assays were performed in GraphPad Prism 8.4 (GraphPad Software, San Diego). Data were fitted to obtain concentration–response curves using either the three-parameter logistic equation using to obtain values of Emax and pEC50 or the operational model of agonism. Statistical differences were analysed using one-way ANOVA followed by Dunnett’s post-hoc (for comparisons amongst more than two groups) or unpaired Student’s t test with Welch’s correction (for comparison between two groups). […] Having obtained values for τ and KA these were then used to quantify signalling bias as the change in Log(τ/KA)[19],[28]. […]

[3] = biological target: T3, CGRP receptor (CLR-RAMP1) in human cardiomyocytes (HCMs) (Homo sapiens, UniProt O60894+Q16602); experiment: cAMP accumulation in HCMs; type: cell-based; conditions: HCM, 30 min, relative to 100 μM forskolin, mean ± SEM
T3 construct: primary human cardiomyocytes (HCMs) since these cells only expressed CLR and RAMP1; host or cells: primary human cardiomyocytes (HCMs)
Description: (§1) Data are analysed using a three-parameter non-linear regression curve or the operational model of receptor agonism. g, h Signalling bias plots were calculated as ∆Log(τ/KA) (g) or ∆∆Log(τ/KA) (h) for each agonist and for each signalling pathway. […] All data represent mean ± SEM for n repeats.
All primary cell lines were cultured as above. On the day of the experiment media was removed and cells washed with PBS, before being dissociated with Trypsin-EDTA 0.05% (Gibco, UK) and then resuspended in PBS/BSA (0.1%) (Sigma, UK). […] Plates were incubated for a further 60 min (room temperature) and then read on a plate reader (Mithras LB 940 microplate reader (Berthold technologies, Germany)). […]
(§2) All sample sizes were determined, and data analysed, in accordance with the guidelines described by Curtis M et al.[65]. […] Statistical differences were analysed using one-way ANOVA followed by Dunnett’s post-hoc (for comparisons amongst more than two groups) or unpaired Student’s t test with Welch’s correction (for comparison between two groups). […] Having obtained values for τ and KA these were then used to quantify signalling bias as the change in Log(τ/KA)[19],[28]. […]

[4] = biological target: T3, CGRP receptor (CLR-RAMP1) in human cardiomyocytes (HCMs); experiment: total NO production in HCMs; type: cell-based; conditions: HCM, 15 min, relative to 10 μM isoproterenol, mean ± SEM
Description: as §1
Endothelial cells and HCMs were cultured as above. 24 h prior to assay cells were plated on Costar 96-well black clear bottom plates at 40,000 cells/well. The assay was performed according to the manufacturer’s protocol. Briefly, cells pre-incubated with NO dye and assay buffer 1 (Fluorometric Nitric Oxide Assay Kit, Abcam, UK) for 30 min at 37 °C in 5% CO2. […] Stain and ligand solution was removed, assay buffer II was added, and wells were read immediately. The absorbance was measured using a Tecan T200 (Thermo Fisher Scientific UK) reader with an excitation/emission of 540/590 nm. […]
as §2

[5] = pERK1/2, HUAEC, operational model, mean ± SEM

T1 sequence (Q16602 23-461): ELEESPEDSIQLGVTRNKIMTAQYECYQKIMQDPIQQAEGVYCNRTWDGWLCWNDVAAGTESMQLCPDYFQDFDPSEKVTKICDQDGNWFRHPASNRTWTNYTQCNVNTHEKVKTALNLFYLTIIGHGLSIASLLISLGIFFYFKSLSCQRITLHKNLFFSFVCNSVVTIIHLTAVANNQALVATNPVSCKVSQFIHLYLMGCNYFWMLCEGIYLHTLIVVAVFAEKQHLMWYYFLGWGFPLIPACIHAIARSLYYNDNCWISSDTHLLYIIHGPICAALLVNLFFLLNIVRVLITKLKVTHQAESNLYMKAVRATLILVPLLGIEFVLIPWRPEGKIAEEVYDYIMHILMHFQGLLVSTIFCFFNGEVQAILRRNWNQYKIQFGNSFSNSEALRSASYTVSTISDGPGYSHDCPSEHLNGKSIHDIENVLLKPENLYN
T1 sequence (O60895 43-175): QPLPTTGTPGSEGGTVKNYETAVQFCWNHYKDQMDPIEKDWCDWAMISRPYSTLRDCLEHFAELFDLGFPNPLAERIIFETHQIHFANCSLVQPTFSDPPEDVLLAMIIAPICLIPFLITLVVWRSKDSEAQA
T3 sequence (Q16602 23-461): as the sequence (Q16602 23-461) above
T3 sequence (O60894 27-148): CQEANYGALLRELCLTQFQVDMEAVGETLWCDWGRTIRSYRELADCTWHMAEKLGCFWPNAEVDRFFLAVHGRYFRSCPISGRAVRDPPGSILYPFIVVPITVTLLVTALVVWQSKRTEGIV
T2 sequence (Q16602 23-461): as the sequence (Q16602 23-461) above
T2 sequence (O60895 43-175): as the sequence (O60895 43-175) above

| Compound | Emax [1] | Transducer coefficient Log(τ/KA) ([1]; pERK1/2, HUAEC, calculated from Table S1) | logτ [1, 5] | pKA [1, 5] | agonist bias [2] | Emax [3] | Emax [4] |
| --- | --- | --- | --- | --- | --- | --- | --- |
| CSCC[C@H](NC(=O)[C@H](CC(C)C)NC(=O)[C@H](CCC(N)=O)NC(=O)[C@H](Cc1c[nH]c2ccccc12)NC(=O)[C@H](CC(C)C)NC(=O)[C@H](CCCNC(=N)N)NC(=O)[C@H](Cc1c[nH]cn1)NC(=O)[C@H](CO)NC(=O)[C@H](CC(C)C)NC(=O)[C@H](CC(N)=O)NC(=O)[C@H](CCC(N)=O)NC(=O)[C@@H](NC(=O)[C@H](CCC(N)=O)NC(=O)[C@@H]1CSSC[C@H](NC(=O)CNC(=O)[C@@H](NC(=O)[C@H](CCCNC(=N)N)NC(=O)[C@H](CC(C)C)NC(=O)[C@H](CC(C)C)NC(=O)[C@H](CCC(N)=O)NC(=O)[C@H](C)NC(=O)[C@H](CCC(N)=O)NC(=O)[C@@H](N)[C@@H](C)O)C(C)C)C(=O)N[C@@H](C(C)C)C(=O)N[C@@H](CC(C)C)C(=O)NCC(=O)N[C@@H]([C@@H](C)O)C(=O)N1)C(C)C)C(=O)NCC(=O)N1CCC[C@H]1C(=O)N[C@@H](C)C(=O)NCC(=O)N[C@@H](CCCNC(=N)N)C(=O)N[C@@H](CCC(N)=O)C(=O)N[C@@H](CC(=O)O)C(=O)N[C@@H](CO)C(=O)N[C@@H](C)C(=O)N1CCC[C@H]1C(=O)N[C@H](C(=O)N[C@@H](CC(=O)O)C(=O)N1CCC[C@H]1C(=O)N[C@@H](CO)C(=O)N[C@@H](CO)C(=O)N1CCC[C@H]1C(=O)N[C@@H](Cc1c[nH]cn1)C(=O)N[C@@H](CO)C(=O)N[C@@H](Cc1ccc(O)cc1)C(N)=O)C(C)C [AM2, adrenomedullin 2] | 17.6 ± 2.44% | 4.76±0.35 | -0.67±0.12 | 5.43±0.33 | biased towards Ca^2+i mobilisation and NO production |  |  |
| CC[C@H](C)[C@H](NC(=O)[C@H](CCC(N)=O)NC(=O)[C@H](Cc1c[nH]cn1)NC(=O)[C@H](C)NC(=O)[C@H](CC(C)C)NC(=O)[C@H](CCCCN)NC(=O)[C@H](CCC(N)=O)NC(=O)[C@@H](NC(=O)[C@@H](NC(=O)[C@@H]1CSSC[C@H](NC(=O)CNC(=O)[C@H](Cc2ccccc2)NC(=O)[C@H](CO)NC(=O)[C@H](CCCNC(=N)N)NC(=O)[C@H](CC(C)C)NC(=O)CNC(=O)[C@H](CCC(N)=O)NC(=O)[C@H](Cc2ccccc2)NC(=O)[C@H](CC(N)=O)NC(=O)[C@H](CC(N)=O)NC(=O)[C@H](CCSC)NC(=O)[C@H](CO)NC(=O)[C@H](CCC(N)=O)NC(=O)[C@H](CCCNC(=N)N)NC(=O)[C@@H](N)Cc2ccc(O)cc2)C(=O)N[C@@H](CCCNC(=N)N)C(=O)N[C@@H](Cc2ccccc2)C(=O)NCC(=O)N[C@@H]([C@@H](C)O)C(=O)N1)[C@@H](C)O)C(C)C)C(=O)N[C@@H](Cc1ccc(O)cc1)C(=O)N[C@@H](CCC(N)=O)C(=O)N[C@@H](Cc1ccccc1)C(=O)N[C@H](C(=O)N[C@@H](CC(=O)O)C(=O)N[C@@H](CCCCN)C(=O)N[C@@H](CC(=O)O)C(=O)N[C@@H](CCCCN)C(=O)N[C@@H](CC(=O)O)C(=O)N[C@@H](CC(N)=O)C(=O)N[C@H](C(=O)N[C@@H](C)C(=O)N1CCC[C@H]1C(=O)N[C@@H](CCCNC(=N)N)C(=O)N[C@@H](CO)C(=O)N[C@@H](CCCCN)C(=O)N[C@H](C(=O)N[C@@H](CO)C(=O)N1CCC[C@H]1C(=O)N[C@@H](CCC(N)=O)C(=O)NCC(=O)N[C@@H](Cc1ccc(O)cc1)C(N)=O)[C@@H](C)CC)C(C)C)[C@@H](C)O [AM, adrenomedullin] |  |  |  |  |  | 63 ± 3.14% | 47 ± 5.85% |
